Measured values from US20260226029A1, “1-(1-Oxo-1,2-Dihydrophthalazin-6-yl)Cycloalkyl-1-Carboxamide Derivatives as MTA-Cooperative Inhibitors of PRMT5” (BeOne Medicines I GmbH, priority 2023, published 2026).

Assays:
[1] = test system: HCT116-MTAP-KO; experiment: Compounds cell killing in HCT116 isogenic pair (CellTiter-Glo, 6 days), MTAP-KO cells; format: cell-based; conditions: Homo sapiens, HCT-116, 144 h, Cell Titer-Glo, 0-10 μM
From the text: (§1) HCT116 cell line (ATCC, CCL-247) was isolated from the colon of an adult with colon cancer. It has a mutation in codon 13 of the ras proto-oncogene and can be used as a positive control for PCR assays of mutation in this codon. HCT116-MTAP-KO was knocked-out-MTAP-gene based HCT116, and a single clone was passed for this assay. HCT116-mock-RNA-KO was knocked-out-mock-gene based HCT116 with MTAP wildtype genotype. The base medium for HCT116 isogenic pair is RPMI 1640, HEPES (Gibco, 22400105). To make the complete growth medium, add the following components to the base medium: fetal bovine serum to a final concentration of 10% (Gibco, 10099-141C). The cell line was grown in a humidified 5% CO2 atmosphere at 37° C. and regularly tested for the presence of mycoplasma with MycoAlert™ PLUS Mycoplasma Detection Kit (Lonza, LT07-710).
(§2) • Seed HCT116-mock-RNA-KO (4E2/well) or HCT116-MTAP-KO (4E2/well) cells into a 96-well plate (Greiner: 655090), 100 µL/well. • Incubate at 37° C., 5% CO2, overnight. • Add 50 μL fresh growth-medium containing serial dilution of compounds for a final compound concentration of 0-10 μM to each well. • Incubate at 37° C., 5% CO2, 6 days. • The cell viability detected by Cell Titer-Glo (Promega, G7573). Add 70 μL of CellTiter-Glo® reagent in each well. • Incubate at room temperature for 10 minutes to stabilize luminescent signal. • Analyze with Microplate Reader (TECAN, SPARK) and fit IC50 using Prism® 9.

[2] = test system: HCT116-mock-RNA-KO; experiment: Compounds cell killing in HCT116 isogenic pair (CellTiter-Glo, 6 days), mock-KO (MTAP wildtype) cells; format: cell-based; conditions: Homo sapiens, HCT-116, 144 h, Cell Titer-Glo, 0-10 μM
From the text: as §1, §2

NCc1n[nH]c(=O)c2ccc(C3(C(=O)N(Cc4ccc(-c5c(F)cccc5F)cn4)C4CCCc5cccnc54)CC3)cc12 (stereo not drawn) [Example 18, 1-(4-(aminomethyl)-1-oxo-1,2-dihydrophthalazin-6-yl)-N-((5-(2,6-difluorophenyl)pyridin-2-yl)methyl)-N-(5,6,7,8-tetrahydroquinolin-8-yl)cyclopropane-1-carboxamide]
IC50 [1]: 35 nM | IC50 [2]: 2220 nM

NCc1n[nH]c(=O)c2ccc(C3(C(=O)N(Cc4ccc(-c5c(F)cccc5F)cn4)[C@@H]4CCCc5cccnc54)CC3)cc12 [Example 19A, (R)-1-(4-(aminomethyl)-1-oxo-1,2-dihydrophthalazin-6-yl)-N-((5-(2,6-difluorophenyl)pyridin-2-yl)methyl)-N-(5,6,7,8-tetrahydroquinolin-8-yl)cyclopropane-1-carboxamide]
IC50 [1]: 17 nM | IC50 [2]: 2230 nM

NCc1n[nH]c(=O)c2ccc(C3(C(=O)N(Cc4ccc(-c5c(F)cccc5F)cn4)[C@H]4CCCc5cccnc54)CC3)cc12 [Example 19B, (S)-1-(4-(aminomethyl)-1-oxo-1,2-dihydrophthalazin-6-yl)-N-((5-(2,6-difluorophenyl)pyridin-2-yl)methyl)-N-(5,6,7,8-tetrahydroquinolin-8-yl)cyclopropane-1-carboxamide]
IC50 [1]: 848 nM | IC50 [2]: > 10000 nM

NCc1n[nH]c(=O)c2ccc(C3(C(=O)N(Cc4ccc(Oc5ccccc5)cn4)C4CCCc5cccnc54)CC3)cc12 (stereo not drawn) [Example 20, 1-(4-(aminomethyl)-1-oxo-1,2-dihydrophthalazin-6-yl)-N-((5-phenoxypyridin-2-yl)methyl)-N-(5,6,7,8-tetrahydroquinolin-8-yl)cyclopropane-1-carboxamide]
IC50 [1]: 215 nM | IC50 [2]: > 1000 nM

NCc1n[nH]c(=O)c2ccc(C3(C(=O)N(Cc4ccc(-c5c(F)cccc5F)cn4)C4CCCc5cccc(F)c54)CC3)cc12 (stereo not drawn) [Example 21, 1-(4-(aminomethyl)-1-oxo-1,2-dihydrophthalazin-6-yl)-N-((5-(2,6-difluorophenyl)pyridin-2-yl)methyl)-N-(8-fluoro-1,2,3,4-tetrahydronaphthalen-1-yl)cyclopropane-1-carboxamide]
IC50 [1]: 102 nM | IC50 [2]: 4010 nM

NCc1n[nH]c(=O)c2ccc(C3(C(=O)N(Cc4ccc(Br)cc4F)C4CCCc5cccnc54)CC3)cc12 (stereo not drawn) [Example 22, 1-(4-(aminomethyl)-1-oxo-1,2-dihydrophthalazin-6-yl)-N-(4-bromo-2-fluorobenzyl)-N-(5,6,7,8-tetrahydroquinolin-8-yl)cyclopropane-1-carboxamide]
IC50 [1]: 130 nM | IC50 [2]: 7370 nM

Cc1n[nH]c(C)c1-c1ccc(CN(C(=O)C2(c3ccc4c(=O)[nH]nc(CN)c4c3)CC2)C2CCCc3cccnc32)nc1 (stereo not drawn) [Example 23, 1-(4-(aminomethyl)-1-oxo-1,2-dihydrophthalazin-6-yl)-N-((5-(3,5-dimethyl-1H-pyrazol-4-yl)pyridin-2-yl)methyl)-N-(5,6,7,8-tetrahydroquinolin-8-yl)cyclopropane-1-carboxamide]
IC50 [1]: 3990 nM | IC50 [2]: > 10000 nM

NCc1n[nH]c(=O)c2ccc(C3(C(=O)N(Cc4ccc(-c5c(F)cccc5F)cn4)C4CCC4)CC3)cc12 [Example 25, 1-(4-(aminomethyl)-1-oxo-1,2-dihydrophthalazin-6-yl)-N-cyclobutyl-N-((5-(2,6-difluorophenyl)pyridin-2-yl)methyl)cyclopropane-1-carboxamide]
IC50 [1]: 3690 nM | IC50 [2]: > 10000 nM

NCc1n[nH]c(=O)c2ccc(C3(C(=O)N(Cc4ccc(-c5c(F)cccc5Cl)cn4)C4CCCc5cccnc54)CC3)cc12 (stereo not drawn) [Example 26, 1-(4-(aminomethyl)-1-oxo-1,2-dihydrophthalazin-6-yl)-N-((5-(2-chloro-6-fluorophenyl)pyridin-2-yl)methyl)-N-(5,6,7,8-tetrahydroquinolin-8-yl)cyclopropane-1-carboxamide]
IC50 [1]: 77 nM | IC50 [2]: 2780 nM

NCc1n[nH]c(=O)c2ccc(C3(C(=O)N(Cc4ccc5c(Br)cccc5n4)C4CCCc5cccnc54)CC3)cc12 (stereo not drawn) [Example 27, 1-(4-(aminomethyl)-1-oxo-1,2-dihydrophthalazin-6-yl)-N-((5-bromoquinolin-2-yl)methyl)-N-(5,6,7,8-tetrahydroquinolin-8-yl)cyclopropane-1-carboxamide]
IC50 [1]: 415 nM | IC50 [2]: 7290 nM

N#Cc1cccc(F)c1-c1ccc(CN(C(=O)C2(c3ccc4c(=O)[nH]nc(CN)c4c3)CC2)C2CCCc3cccnc32)nc1 (stereo not drawn) [Example 28, 1-(4-(aminomethyl)-1-oxo-1,2-dihydrophthalazin-6-yl)-N-((5-(2-cyano-6-fluorophenyl)pyridin-2-yl)methyl)-N-(5,6,7,8-tetrahydroquinolin-8-yl)cyclopropane-1-carboxamide]
IC50 [1]: 102 nM | IC50 [2]: 3210 nM

CC(c1ncccn1)N(Cc1ccc(C(F)(F)F)cn1)C(=O)C1(c2ccc3c(=O)[nH]nc(CN)c3c2)CC1 (stereo not drawn) [Example 29, 1-(4-(aminomethyl)-1-oxo-1,2-dihydrophthalazin-6-yl)-N-(1-(pyrimidin-2-yl)ethyl)-N-((5-(trifluoromethyl)pyridin-2-yl)methyl)cyclopropane-1-carboxamide]
IC50 [1]: 1440 nM | IC50 [2]: > 10000 nM

COCC(COC)N(Cc1ccc(-c2c(F)cccc2F)cn1)C(=O)C1(c2ccc3c(=O)[nH]nc(CN)c3c2)CC1 [Example 30, 1-(4-(aminomethyl)-1-oxo-1,2-dihydrophthalazin-6-yl)-N-((5-(2,6-difluorophenyl)pyridin-2-yl)methyl)-N-(1,3-dimethoxypropan-2-yl)cyclopropane-1-carboxamide]
IC50 [1]: 254 nM | IC50 [2]: > 10000 nM

NCc1n[nH]c(=O)c2ccc(C3(C(=O)N(Cc4ccc(S(F)(F)(F)(F)F)cc4)[C@@H]4CCCc5cccnc54)CC3)cc12 [Example 31, (R)-1-(4-(aminomethyl)-1-oxo-1,2-dihydrophthalazin-6-yl)-N-(4-(pentafluoro-λ^6-sulfanyl)benzyl)-N-(5,6,7,8-tetrahydroquinolin-8-yl)cyclopropane-1-carboxamide]
IC50 [1]: 18 nM | IC50 [2]: 3150 nM

NCc1n[nH]c(=O)c2ccc(C3(C(=O)N(Cc4ccc(C(F)(F)F)cn4)C4CCCc5c(C6CC6)ccnc54)CC3)cc12 (stereo not drawn) [Example 32, 1-(4-(aminomethyl)-1-oxo-1,2-dihydrophthalazin-6-yl)-N-(4-cyclopropyl-5,6,7,8-tetrahydroquinolin-8-yl)-N-((5-(trifluoromethyl)pyridin-2-yl)methyl)cyclopropane-1-carboxamide]
IC50 [1]: 140 nM | IC50 [2]: 7330 nM

NCc1n[nH]c(=O)c2ccc(C3(C(=O)N(Cc4ccc(-c5c(F)cccc5F)cn4)C4CCc5cccnc54)CC3)cc12 (stereo not drawn) [Example 33, 1-(4-(aminomethyl)-1-oxo-1,2-dihydrophthalazin-6-yl)-N-((5-(2,6-difluorophenyl)pyridin-2-yl)methyl)-N-(6,7-dihydro-5H-cyclopenta[b]pyridin-7-yl)cyclopropane-1-carboxamide]
IC50 [1]: 150 nM | IC50 [2]: 9800 nM

NCc1n[nH]c(=O)c2ccc(C3(C(=O)N(Cc4ccc(Oc5c(F)cccc5F)cn4)[C@@H]4CCCc5cccnc54)CC3)cc12 [Example 34, (R)-1-(4-(aminomethyl)-1-oxo-1,2-dihydrophthalazin-6-yl)-N-((5-(2,6-difluorophenoxy)pyridin-2-yl)methyl)-N-(5,6,7,8-tetrahydroquinolin-8-yl)cyclopropane-1-carboxamide]
IC50 [1]: 66 nM | IC50 [2]: 3650 nM

NCc1n[nH]c(=O)c2ccc(C3(C(=O)N(Cc4ccc(C(F)(F)F)cn4)C4CCCc5cccnc54)CCC3)cc12 (stereo not drawn) [Example 35, 1-(4-(aminomethyl)-1-oxo-1,2-dihydrophthalazin-6-yl)-N-(5,6,7,8-tetrahydroquinolin-8-yl)-N-((5-(trifluoromethyl)pyridin-2-yl)methyl)cyclobutane-1-carboxamide]
IC50 [1]: 924 nM | IC50 [2]: > 10000 nM
